# Results reported in patent US6488952B1, “Semisolid therapeutic delivery system and combination semisolid, multiparticulate, therapeutic delivery system” (priority 2001, dated 2002).
# Key:
# [1] = Incorporation of BCNU into GMO gel without disruption of the three-dimensional structure; format: physicochemical; details: physiologic temperature
# Text: The drug, such as BCNU, releases from the semisolid through diffusion, conceivably in a biphasic manner. A first phase involves, for example, a lipophilic drug contained within the lipophilic membrane diffuses therefrom into the aqueous channel 15. The second phase involves diffusion of the drug from the aqueous channel 15 into the external environment. Being lipophilic, BCNU orients itself inside the GMO gel within its proposed lipid bi-layer structure. Thus, incorporating greater than approximately 7.5% BCNU by weight into GMO causes a loss of the integrity of the three-dimensional structure whereby the gel system no longer maintains the semisolid cubic phase, and reverts to the viscous lamellar phase liquid.
# It is possible to incorporate approximately 7.5% BCNU by weight into GMO gel at physiologic temperature without disruption of the normal three-dimensional structure. In addition, an average glioma tumor measures approximately 3 centimeters in diameter and equates to approximately 14 cubic centimeters in volume. As a result, approximately 11.5 to 12.0 grams of GMO gel may be implanted into the resection pocket. This equates to a possible drug dosage of approximately 900 milligrams with maximal drug. As stated earlier, the clinically recommended dose of BCNU delivered by Gliadel® Wafers to date is approximately 65 milligrams.
# [2] = Miscibility of GMS in H2O; format: physicochemical
# Text: It is recognized that alternative semisolids, modified formulations and methods of production exist such that the lipophilic nature of the semisolid can be altered, or in the alternative, the aqueous channels 15 contained within the semisolid can be altered. Thus, various therapeutic agents in varying concentrations may diffuse from the semisolid at differing rates, or be released therefrom over time via the aqueous channels 15 of the semisolid. Hydrophilic substances may be utilized to alter semisolid consistency or drug release by alteration of viscosity, fluidity, surface tension or the polarity of the aqueous component. […] However, because GMS is a surfactant, GMS is miscible in H2O up to approximately 20% weight/weight. For purposes of this disclosure, the term “surfactant” means surface active agent, thus being miscible in H2O in limited concentrations as well as polar substances. Upon heating and stirring, the 80% H2O/20% GMS combination produces a spreadable paste having a consistency resembling hand lotion.
SMILES,BCNU incorporated into GMO gel without disruption of the normal three-dimensional structure [1],miscibility in H2O [2]
"O=NN(CCCl)C(=O)NCCCl [BCNU, 1,3-bis[2-chloroethyl]-1-nitrosourea]",approximately 7.5 % by weight,
"CCCCCCCCCCCCCCCCCC(=O)OCC(O)CO (centres unmarked) [GMS, glyceryl monostearate]",,≤ 20 % weight/weight
